Laboratory results published in patent US11643439B2, “Multi-target compound with anticoagulation and antiplatelet activity, preparation method therefor, and use thereof” (SHAANXI MICOT TECHNOLOGY LIMITED COMPANY, priority 2015, dated 2023).
Marks after values point to notes of the source that are not given here.

Tests used:
whole blood coagulation = assay: ACT in rabbits, intravenous maintenance administration; type: in vivo, rabbit
Description: 2. Grouping and administration: 10 rabbits were randomly divided into 3 groups, […]. 1) Sham operation group (NS): Intravenous injection of the same volume of physiological saline, with the same operation method as above; 2) polypeptide 2 administration group: 8.0 mg/kg+20.0 mg/kg/h; 3) positive control enoxaparin group: 50 U/kg+150 U/kg/h. According to the body weight in kilograms of the rabbits, the first dose of the drug to be tested was dissolved in 2 mL of physiological saline for single bolus injection. The maintaining dose was dissolved in 9 ml of physiological saline, and placed in a double-channel micro-injection pump, which was dripped off within 90 minutes at a dripping speed of […]. The sham operation group was administered with the same volume of physiological saline. […]

[1] = test system: thrombin-induced pulmonary embolism; assay: Thrombin-induced pulmonary embolism in mice; type: in vivo, mouse; details: thrombin 1500 u/kg, tail iv 250 IU/kg

Substance	ACT (whole blood coagulation; iv 8.0 + 20.0 (mg/kg+mg/kg/h), Administration 30 min) [S]	ACT (whole blood coagulation; iv 8.0 + 20.0 (mg/kg+mg/kg/h), Administration 60 min) [S]	ACT (whole blood coagulation; iv 8.0 + 20.0 (mg/kg+mg/kg/h), Administration 90 min) [S]	ACT (whole blood coagulation; iv 8.0 + 20.0 (mg/kg+mg/kg/h), Before administration) [S]	ACT (whole blood coagulation; iv 8.0 + 20.0 (mg/kg+mg/kg/h), Termination 120 min) [S]	ACT (whole blood coagulation; iv 8.0 + 20.0 (mg/kg+mg/kg/h), Termination 180 min) [S]	Number of platelets [1]	Mortality rate ([1]; within 15 min)	ACT (whole blood coagulation; iv 50 U + 150 U, Administration 30 min) [S]	ACT (whole blood coagulation; iv 50 U + 150 U, Administration 60 min) [S]	ACT (whole blood coagulation; iv 50 U + 150 U, Administration 90 min) [S]	ACT (whole blood coagulation; iv 50 U + 150 U, Before administration) [S]	ACT (whole blood coagulation; iv 50 U + 150 U, Termination 60 min) [S]	ACT (whole blood coagulation; iv 50 U + 150 U, Termination 120 min) [S]	ACT (whole blood coagulation; iv 50 U + 150 U, Termination 180 min) [S]
D-Phe Pro Arg Pro Gly Gly Gly Gly Asn Gly Asp Phe Glu Glu Ile Pro Glu Glu Tyr Leu Glu Ala Ala Ala Lys Cys Har Gly Asp Trp Pro Cys [Polypeptide 2]	330.0 ± 63.6	277.5 ± 31.8	300.0 ± 63.6	217.5 ± 95.5	172.5 ± 31.8	112.5 ± 74.2									
Enoxaparin							459.83 ± 49.66 ×10^9	10**^## %	225.0	375.0	270.0	180.0	210	195.0	225.0
